Each structure is given as a SMILES string.

The target of assay [1] is T1, c-Met (cytoplasmic domain) (Homo sapiens, UniProt P08581).
T1 construct: 10 ng/mL c-Met (cytoplasmic domain, Invitrogen Corporation #PV3143); purchased Invitrogen Corporation PV3143
The assay is described as follows: c-Met Kinase Assay (same methods as for ALK, with modifications). It is filed as biochemical. As to conditions: c-Met kinase inhibition, 1 μM ATP (Km level); read-out: cMet Activity. In short, it runs like this:
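Plates were coated with phospholipase C-γ substrate (10 μg/mL) in TBS, and the reaction was started with 10 ng/mL c-Met cytoplasmic domain and run 15 min at 37 °C. Phosphoproduct was detected with Eu-N1-labelled PT66 antibody. IC50 came from a variable-slope sigmoidal fit of percent inhibition vs log concentration.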

Assay [2] addresses T2, baculovirus-expressed ALK (Homo sapiens, UniProt Q9UM73).
T2 construct: host or cells: baculovirus expression system
The assay is described as follows: ALK Kinase Assay (ELISA-type, time-resolved fluorescence). The assay is classed as biochemical. The note with it: ALK kinase inhibition, 1 μM ATP (Km level); read-out: ALK Activity. In short, it runs like this:
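Plates coated with phospholipase C-γ substrate (10 μg/mL in TBS); reaction started with 30 ng/ml ALK and run 15 min at 37° C. Phosphorylated substrate detected with Eu-N1-labeled PT66 antibody. IC50 from sigmoidal variable-slope fit of percent inhibition vs log concentration.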
In general terms: In an ELISA, binding on a coated surface is turned into a signal by an enzyme label.

T2 sequence (Q9UM73 19-1620): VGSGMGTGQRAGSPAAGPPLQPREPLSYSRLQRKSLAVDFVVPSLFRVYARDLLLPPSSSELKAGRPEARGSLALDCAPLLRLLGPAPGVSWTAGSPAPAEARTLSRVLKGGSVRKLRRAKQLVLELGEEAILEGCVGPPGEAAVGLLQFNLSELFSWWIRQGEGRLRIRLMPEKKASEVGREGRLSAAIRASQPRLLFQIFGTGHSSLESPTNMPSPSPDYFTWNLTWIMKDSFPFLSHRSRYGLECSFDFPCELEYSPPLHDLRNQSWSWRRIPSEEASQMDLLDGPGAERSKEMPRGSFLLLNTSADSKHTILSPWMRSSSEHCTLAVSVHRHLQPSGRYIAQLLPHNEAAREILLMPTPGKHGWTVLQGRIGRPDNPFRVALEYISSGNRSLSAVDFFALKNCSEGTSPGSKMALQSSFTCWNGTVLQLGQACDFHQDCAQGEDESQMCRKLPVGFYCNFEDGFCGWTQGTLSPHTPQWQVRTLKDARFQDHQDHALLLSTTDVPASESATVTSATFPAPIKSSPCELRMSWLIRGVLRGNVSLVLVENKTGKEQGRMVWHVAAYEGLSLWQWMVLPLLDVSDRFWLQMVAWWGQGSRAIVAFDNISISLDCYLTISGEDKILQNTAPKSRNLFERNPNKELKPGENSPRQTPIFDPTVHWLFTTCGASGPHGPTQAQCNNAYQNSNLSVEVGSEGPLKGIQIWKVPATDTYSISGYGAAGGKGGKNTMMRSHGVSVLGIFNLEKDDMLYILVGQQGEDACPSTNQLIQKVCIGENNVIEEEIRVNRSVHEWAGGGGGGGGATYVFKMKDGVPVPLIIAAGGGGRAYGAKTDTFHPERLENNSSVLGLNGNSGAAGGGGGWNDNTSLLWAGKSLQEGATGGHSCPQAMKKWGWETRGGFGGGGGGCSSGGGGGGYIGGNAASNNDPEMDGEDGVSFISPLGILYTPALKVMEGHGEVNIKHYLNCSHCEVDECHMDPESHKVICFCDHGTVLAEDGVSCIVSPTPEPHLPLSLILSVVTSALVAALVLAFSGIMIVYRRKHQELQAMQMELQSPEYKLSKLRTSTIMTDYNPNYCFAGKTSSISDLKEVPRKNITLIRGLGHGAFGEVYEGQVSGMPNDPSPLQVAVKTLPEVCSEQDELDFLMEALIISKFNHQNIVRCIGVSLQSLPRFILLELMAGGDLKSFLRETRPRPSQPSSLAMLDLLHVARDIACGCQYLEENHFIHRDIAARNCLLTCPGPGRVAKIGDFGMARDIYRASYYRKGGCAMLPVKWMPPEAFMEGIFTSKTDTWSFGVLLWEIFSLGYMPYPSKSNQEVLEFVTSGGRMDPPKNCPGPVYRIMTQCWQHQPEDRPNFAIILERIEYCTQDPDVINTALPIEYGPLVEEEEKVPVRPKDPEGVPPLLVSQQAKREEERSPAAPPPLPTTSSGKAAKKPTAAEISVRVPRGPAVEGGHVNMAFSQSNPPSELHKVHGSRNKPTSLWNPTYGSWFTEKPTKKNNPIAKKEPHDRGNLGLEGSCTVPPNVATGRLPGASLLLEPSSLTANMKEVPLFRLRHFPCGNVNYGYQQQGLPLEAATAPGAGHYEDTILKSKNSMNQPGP
T1 sequence (P08581 956-1390 limits assumed): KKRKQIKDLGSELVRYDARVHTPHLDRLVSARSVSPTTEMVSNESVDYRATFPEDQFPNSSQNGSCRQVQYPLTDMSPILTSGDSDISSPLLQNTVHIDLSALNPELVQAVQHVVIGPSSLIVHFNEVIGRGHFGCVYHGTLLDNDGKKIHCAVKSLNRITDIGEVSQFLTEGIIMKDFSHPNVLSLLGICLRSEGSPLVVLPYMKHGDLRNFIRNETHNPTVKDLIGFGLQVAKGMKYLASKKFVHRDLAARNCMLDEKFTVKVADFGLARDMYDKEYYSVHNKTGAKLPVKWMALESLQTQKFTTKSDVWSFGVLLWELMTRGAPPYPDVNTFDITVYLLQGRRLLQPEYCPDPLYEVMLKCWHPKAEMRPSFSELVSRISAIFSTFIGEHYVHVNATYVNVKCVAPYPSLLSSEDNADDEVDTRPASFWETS

Consider `CCN1C(=O)C(C)(C)CCc2c1ccc(Nc1ncc(Cl)c(Nc3ccccc3C(=O)NC)n1)c2OC` [Example 144, 2-[5-Chloro-2-(1-ethyl-6-methoxy-3,3-dimethyl-2-oxo-2,3,4,5-tetrahydro-1H-benzo[b]azepin-7-ylamino)-pyrimidin-4-ylamino]-N-methyl-benzamide], for which the values for the IC50 in assay [1] and in assay [2] were 1000 to 10000 nM and under 100 nM, respectively.
As for `COCCN1CCc2ccc(Nc3ncc(Cl)c(Nc4ccccc4OC)n3)cc2CC1` [Example 145, 5-Chloro-N*2*-[3-(2-methoxy-ethyl)-2,3,4,5-tetrahydro-1H-benzo[d]azepin-7-yl]-N*4*-(2-methoxy-phenyl)-pyrimidine-2,4-diamine], the IC50 was 1000 to 10000 nM in assay [1] and under 100 nM in assay [2].
On to `COCCN1CCc2ccc(Nc3ncc(Cl)c(Nc4cc(Cl)ccc4OC)n3)cc2CC1` [Example 146, 5-Chloro-N*4*-(5-chloro-2-methoxy-phenyl)-N*2*-[3-(2-methoxy-ethyl)-2,3,4,5-tetrahydro-1H-benzo[d]azepin-7-yl]-pyrimidine-2,4-diamine], for which the results for the IC50 in assay [1] and in assay [2] were 100 to 1000 nM and under 100 nM, respectively.
As for `CCC1C(=O)N(CC)CCc2cc(Nc3ncc(Cl)c(NC4CCCCC4NS(C)(=O)=O)n3)c(OC)cc21` [Example 151, N-{(1R,2R)-2-[5-Chloro-2-(1,3-diethyl-8-methoxy-2-oxo-2,3,4,5-tetrahydro-1H-benzo[d]azepin-7-ylamino)-pyrimidin-4-ylamino]-cyclohexyl-methanesulfonamide], the figures for the IC50 in assay [1] and in assay [2] were over 10000 nM and under 100 nM, respectively.
`CCC1C(=O)N(CC)CCc2c1ccc(Nc1ncc(Cl)c(Nc3ccccc3C(=O)NC)n1)c2OC` (centres unmarked) [Example 152, 2-[5-Chloro-2-(1,3-diethyl-6-methoxy-2-oxo-2,3,4,5-tetrahydro-1H-benzo[d]azepin-7-ylamino)-pyrimidin-4-ylamino]-N-methyl-benzamide]: the IC50 in assay [1] was 1000 to 10000 nM; in assay [2], under 100 nM.
For `C#CCNc1nc(Nc2ccc3c(c2)CCN(CC)CC3)ncc1Cl` [Example 153, 5-Chloro-N*2*-(3-ethyl-2,3,4,5-tetrahydro-1H-benzo[d]azepin-7-yl)-N*4*-prop-2-ynyl-pyrimidine-2,4-diamine], the IC50 in assay [1] and in assay [2] was 1000 to 10000 nM in each case.
Regarding `CCN1CCc2c(Nc3ncc(Cl)c(Nc4ccccc4C(=O)NC)n3)ccc(OC)c2CC1` [Example 154, 2-[5-Chloro-2-(3-ethyl-9-methoxy-2,3,4,5-tetrahydro-1H-benzo[d]azepin-6-ylamino)-pyrimidin-4-ylamino]-N-methyl-benzamide], the IC50 in assay [1] was over 10000 nM; in assay [2], 100 to 1000 nM.
With `CCN1CCc2c(Nc3ncc(Cl)c(N[C@@H]4CCCC[C@H]4NS(C)(=O)=O)n3)ccc(OC)c2CC1` [Example 155, N-{(1R,2R)-2-[5-Chloro-2-(3-ethyl-9-methoxy-2,3,4,5-tetrahydro-1H-benzo[d]azepin-6-ylamino)-pyrimidin-4-ylamino]-cyclohexyl}-methanesulfonamide], the IC50 was over 10000 nM in assay [1] and under 100 nM in assay [2].
On to `CCN1CC2CC(C1)c1cc(Nc3ncc(Cl)c(Nc4ccccc4C(=O)NC)n3)ccc12` (centres unmarked) [Example 156, 2-[5-Chloro-2-(10-ethyl-10-aza-tricyclo[6.3.1.0*2,7*]dodeca-2,4,6-trien-4-ylamino)-pyrimidin-4-ylamino]-N-methyl-benzamide], for which the IC50 in assay [1] and in assay [2] was under 100 nM each time.
On to `CCN1CC2CC(C1)c1cc(Nc3ncc(Cl)c(Nc4ccccc4S(=O)(=O)NC)n3)ccc12` (centres unmarked) [Example 157, 2-[5-Chloro-2-(10-ethyl-10-aza-tricyclo[6.3.1.0*2,7*]dodeca-2,4,6-trien-4-ylamino)-pyrimidin-4-ylamino]-N-methyl-benzenesulfonamide], for which the IC50 was 1000 to 10000 nM in assay [1] and under 100 nM in assay [2].
